Source: PubChem BioAssay AID270 (DTP/NCI, 2004)
“And” between values parts separate entries of the source, which are not always exact repeats. Identical values can stand only once. Results filed as inconclusive are left out.

Tested on: BDF1 mice, s.c. Lewis lung carcinoma, T/C %
Test: NCI In Vivo Anticancer Drug Screen. Data for tumor model Lewis Lung Carcinoma (subcutaneous) in B6D2F1 (BDF1) mice
How it was run: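 Transplanted tumors grown in mice; compound vs vehicle dosing; endpoint survival or tumor size; ratio T/C.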

[1] = endpoint: mean tumor weight, dose: 50.0 mg/kg/injection, schedule: Q01DX011 (ip), vehicle: saline, higher = larger tumour
[2] = endpoint: mean tumor weight, dose: 200.0 mg/kg/injection, schedule: Q01DX011 (ip), vehicle: saline, higher = larger tumour
[3] = endpoint: mean tumor weight, dose: 400.0 mg/kg/injection, schedule: Q01DX011 (ip), vehicle: saline, higher = larger tumour

Cn1cnc([N+](=O)[O-])c1Sc1nc(N)nc2c1ncn2C1OC(CO)C(O)C1O (stereo not drawn)
T/C (endpoint: mean tumor weight, dose: 1.0 mg/kg/injection, schedule: Q01DX011 (ip), vehicle: other, higher = larger tumour): 76 % of control | T/C (endpoint: mean tumor weight, dose: 2.0 mg/kg/injection, schedule: Q01DX011 (ip), vehicle: other, higher = larger tumour): 64 % of control | T/C (endpoint: mean tumor weight, dose: 4.0 mg/kg/injection, schedule: Q01DX011 (ip), vehicle: other, higher = larger tumour): 42 % of control | T/C (endpoint: mean tumor weight, dose: 8.0 mg/kg/injection, schedule: Q01DX011 (ip), vehicle: other, higher = larger tumour): 18 % of control and 38 % of control | T/C (endpoint: mean tumor weight, dose: 16.0 mg/kg/injection, schedule: Q01DX011 (ip), vehicle: other, higher = larger tumour): 37 % of control

N#CCC(=O)O
T/C (endpoint: mean tumor weight, dose: 29.0 mg/kg/injection, schedule: Q01DX011 (ip), vehicle: saline, higher = larger tumour): 103 % of control | T/C (endpoint: mean tumor weight, dose: 44.0 mg/kg/injection, schedule: Q01DX011 (ip), vehicle: saline, higher = larger tumour): 104 % of control | T/C (endpoint: mean tumor weight, dose: 66.0 mg/kg/injection, schedule: Q01DX011 (ip), vehicle: other, higher = larger tumour): 47 % of control | T/C (endpoint: mean tumor weight, dose: 66.0 mg/kg/injection, schedule: Q01DX011 (ip), vehicle: saline, higher = larger tumour): 64 % of control

CCCCn1cnc2c(SC)ncnc21
T/C (endpoint: median survival time, dose: 25.0 mg/kg/injection, schedule: Q01DX009 (ip), vehicle: saline with Tween-80, higher = longer survival): 89 % of control | T/C (endpoint: median survival time, dose: 50.0 mg/kg/injection, schedule: Q01DX009 (ip), vehicle: saline with Tween-80, higher = longer survival): 94 % of control | T/C (endpoint: median survival time, dose: 100.0 mg/kg/injection, schedule: Q01DX009 (ip), vehicle: saline with Tween-80, higher = longer survival): 94 % of control

CC(=O)O[C@@H]1[C@@H](O)[C@H]2O[C@@H]3C=C(C)CC[C@]3(CO)[C@]1(C)[C@@]21CO1
T/C (endpoint: median survival time, dose: 1.25 mg/kg/injection, schedule: Q01DX009 (ip), vehicle: saline with Tween-80, higher = longer survival): 92 % of control | T/C (endpoint: median survival time, dose: 2.5 mg/kg/injection, schedule: Q01DX009 (ip), vehicle: saline with Tween-80, higher = longer survival): 100 % of control | T/C (endpoint: median survival time, dose: 5.0 mg/kg/injection, schedule: Q01DX009 (ip), vehicle: saline with Tween-80, higher = longer survival): 97 % of control

CCO/C=C1\SC(=S)N(c2cccc(OC)c2)C1=O
T/C (endpoint: median survival time, dose: 50.0 mg/kg/injection, schedule: Q01DX001 (ip), vehicle: Klucel (hydroxypropylcellulose) (HPC), higher = longer survival): 101 % of control | T/C (endpoint: median survival time, dose: 100.0 mg/kg/injection, schedule: Q01DX001 (ip), vehicle: Klucel (hydroxypropylcellulose) (HPC), higher = longer survival): 104 % of control | T/C (endpoint: median survival time, dose: 200.0 mg/kg/injection, schedule: Q01DX001 (ip), vehicle: Klucel (hydroxypropylcellulose) (HPC), higher = longer survival): 102 % of control | T/C (endpoint: median survival time, dose: 400.0 mg/kg/injection, schedule: Q01DX001 (ip), vehicle: Klucel (hydroxypropylcellulose) (HPC), higher = longer survival): 101 % of control

CS(=O)(=O)OCC(O)C(O)C(O)C(O)COS(C)(=O)=O (stereo not drawn)
T/C [1]: 86 % of control and 97 % of control | T/C [2]: 54 % of control and 60 % of control | T/C [3]: 58 % of control

FCCNC1CCCCC1
T/C (endpoint: mean tumor weight, dose: 1.5 mg/kg/injection, schedule: Q01DX011 (ip), vehicle: carboxymethylcellulose (CMC), higher = larger tumour): 99 % of control | T/C (endpoint: mean tumor weight, dose: 5.0 mg/kg/injection, schedule: Q01DX011 (ip), vehicle: carboxymethylcellulose (CMC), higher = larger tumour): 89 % of control | T/C (endpoint: mean tumor weight, dose: 7.5 mg/kg/injection, schedule: Q01DX011 (ip), vehicle: carboxymethylcellulose (CMC), higher = larger tumour): 68 % of control

CCOP(=O)(CC(=O)NC(CC(=O)OC)C(=O)OC)OCC (stereo not drawn)
T/C (endpoint: median survival time, dose: 50.0 mg/kg/injection, schedule: Q01DX004 (ip), vehicle: saline, higher = longer survival): 110 % of control | T/C (endpoint: median survival time, dose: 100.0 mg/kg/injection, schedule: Q01DX004 (ip), vehicle: saline, higher = longer survival): 120 % of control | T/C (endpoint: median survival time, dose: 200.0 mg/kg/injection, schedule: Q01DX004 (ip), vehicle: saline, higher = longer survival): 116 % of control | T/C (endpoint: median survival time, dose: 800.0 mg/kg/injection, schedule: Q01DX004 (ip), vehicle: saline, higher = longer survival): 124 % of control | T/C (endpoint: median survival time, dose: 1600.0 mg/kg/injection, schedule: Q01DX004 (ip), vehicle: saline, higher = longer survival): 124 % of control

CC(C)C1=CCC2C(=C1)CCC1C(C)(C(=O)O)CCCC21C (stereo not drawn) (tested in a mixture with another compound)
T/C [1]: 72 % of control | T/C (endpoint: mean tumor weight, dose: 100.0 mg/kg/injection, schedule: Q01DX011 (ip), vehicle: saline, higher = larger tumour): 75 % of control | T/C [2]: 57 % of control | T/C [3]: 45 % of control

O=NN(CCCl)C(=O)NC1CCS(=O)(=O)C1 (stereo not drawn) (tested in a mixture with another compound)
T/C (endpoint: median survival time, dose: 11.0 mg/kg/injection, schedule: Q01DX001 (ip), vehicle: saline with Tween-80, higher = longer survival): 88 % of control | T/C (endpoint: median survival time, dose: 16.0 mg/kg/injection, schedule: Q01DX001 (ip), vehicle: saline with Tween-80, higher = longer survival): 100 % of control | T/C (endpoint: median survival time, dose: 30.0 mg/kg/injection, schedule: Q01DX001 (ip), vehicle: saline with Tween-80, higher = longer survival): 92 % of control

Nc1ccn(C2OC(CO)C(O)C2O)c(=O)n1 (stereo not drawn)
T/C (endpoint: mean tumor weight, dose: 20.0 mg/kg/injection, schedule: Q01DX011 (ip), vehicle: saline, higher = larger tumour): 55 % of control | T/C (endpoint: mean tumor weight, dose: 40.0 mg/kg/injection, schedule: Q01DX011 (ip), vehicle: saline, higher = larger tumour): 40 % of control | T/C (endpoint: median survival time, dose: 1.0 mg/kg/injection, schedule: Q01DX011 (adlb), vehicle: water, higher = longer survival): 110 % of control | T/C (endpoint: median survival time, dose: 2.0 mg/kg/injection, schedule: Q01DX011 (adlb), vehicle: water, higher = longer survival): 100 % of control | T/C (endpoint: median tumor weight (est.), dose: 2.7 mg/kg/injection, schedule: Q03HX032 (ip), vehicle: saline, higher = larger tumour): 43 % of control | T/C (endpoint: median tumor weight (est.), dose: 4.0 mg/kg/injection, schedule: Q03HX024 (ip), vehicle: saline, higher = larger tumour): 50 % of control | T/C (endpoint: median tumor weight (est.), dose: 4.0 mg/kg/injection, schedule: Q03HX032 (ip), vehicle: saline, higher = larger tumour): 36 % of control | T/C (endpoint: median tumor weight (est.), dose: 5.3 mg/kg/injection, schedule: Q03HX016 (ip), vehicle: saline, higher = larger tumour): 59 % of control | T/C (endpoint: median tumor weight (est.), dose: 6.0 mg/kg/injection, schedule: Q03HX024 (ip), vehicle: saline, higher = larger tumour): 34 % of control | T/C (endpoint: median tumor weight (est.), dose: 8.0 mg/kg/injection, schedule: Q03HX016 (ip), vehicle: saline, higher = larger tumour): 67 % of control | T/C (endpoint: median tumor weight (est.), dose: 10.0 mg/kg/injection, schedule: Q03HX008 (ip), vehicle: saline, higher = larger tumour): 62 % of control | T/C (endpoint: median tumor weight (est.), dose: 10.0 mg/kg/injection, schedule: Q03HX032 (ip), vehicle: saline, higher = larger tumour): 59 % of control | T/C (endpoint: median tumor weight (est.), dose: 12.0 mg/kg/injection, schedule: Q03HX016 (ip), vehicle: saline, higher = larger tumour): 32 % of control | T/C (endpoint: median tumor weight (est.), dose: 12.5 mg/kg/injection, schedule: Q01DX009 (ip), vehicle: saline, higher = larger tumour): 93 % of control | T/C (endpoint: median tumor weight (est.), dose: 15.0 mg/kg/injection, schedule: Q03HX032 (ip), vehicle: saline, higher = larger tumour): 55 % of control | T/C (endpoint: median tumor weight (est.), dose: 16.0 mg/kg/injection, schedule: Q03HX008 (ip), vehicle: saline, higher = larger tumour): 57 % of control | T/C (endpoint: median tumor weight (est.), dose: 20.0 mg/kg/injection, schedule: Q01DX015 (ip), vehicle: saline, higher = larger tumour): 74 % of control | T/C (endpoint: median tumor weight (est.), dose: 20.0 mg/kg/injection, schedule: Q06HX020 (ip), vehicle: saline, higher = larger tumour): 70 % of control | T/C (endpoint: median tumor weight (est.), dose: 20.0 mg/kg/injection, schedule: Q12HX027 (ip), vehicle: saline, higher = larger tumour): 62 % of control | T/C (endpoint: median tumor weight (est.), dose: 22.5 mg/kg/injection, schedule: Q03HX032 (ip), vehicle: saline, higher = larger tumour): 48 % of control | T/C (endpoint: median tumor weight (est.), dose: 24.0 mg/kg/injection, schedule: Q03HX008 (ip), vehicle: saline, higher = larger tumour): 54 % of control | T/C (endpoint: median tumor weight (est.), dose: 25.0 mg/kg/injection, schedule: Q01DX009 (ip), vehicle: saline, higher = larger tumour): 100 % of control | T/C (endpoint: median tumor weight (est.), dose: 26.0 mg/kg/injection, schedule: Q01DX011 (ip), vehicle: saline, higher = larger tumour): 68 % of control | T/C (endpoint: median tumor weight (est.), dose: 30.0 mg/kg/injection, schedule: Q01DX015 (ip), vehicle: saline, higher = larger tumour): 67 % of control | T/C (endpoint: median tumor weight (est.), dose: 30.0 mg/kg/injection, schedule: Q06HX020 (ip), vehicle: saline, higher = larger tumour): 45 % of control | T/C (endpoint: median tumor weight (est.), dose: 36.0 mg/kg/injection, schedule: Q03HX008 (ip), vehicle: saline, higher = larger tumour): 24 % of control | T/C (endpoint: median tumor weight (est.), dose: 38.0 mg/kg/injection, schedule: Q01DX011 (ip), vehicle: saline, higher = larger tumour): 75 % of control | T/C (endpoint: median tumor weight (est.), dose: 45.0 mg/kg/injection, schedule: Q01DX015 (ip), vehicle: saline, higher = larger tumour): 73 % of control | T/C (endpoint: median tumor weight (est.), dose: 45.0 mg/kg/injection, schedule: Q06HX020 (ip), vehicle: saline, higher = larger tumour): 30 % of control | T/C (endpoint: median tumor weight (est.), dose: 50.0 mg/kg/injection, schedule: Q01DX009 (ip), vehicle: saline, higher = larger tumour): 60 % of control | T/C (endpoint: median tumor weight (est.), dose: 150.0 mg/kg/injection, schedule: Q12HX012 (ip), vehicle: saline, higher = larger tumour): 5 % of control | T/C (endpoint: median tumor weight (est.), dose: 220.0 mg/kg/injection, schedule: Q12HX012 (ip), vehicle: saline, higher = larger tumour): 2 % of control | T/C (endpoint: median tumor weight (est.), dose: 250.0 mg/kg/injection, schedule: Q04DX003 (ip), vehicle: saline, higher = larger tumour): 74 % of control | T/C (endpoint: median tumor weight (est.), dose: 1000.0 mg/kg/injection, schedule: Q04DX003 (ip), vehicle: saline, higher = larger tumour): 64 % of control

CC1CCCC(NC(=O)N(CCCl)N=O)C1 (stereo not drawn)
T/C (endpoint: median survival time, dose: 20.0 mg/kg/injection, schedule: Q01DX001 (ip), vehicle: gum acacia, higher = longer survival): 110 % of control | T/C (endpoint: median survival time, dose: 30.0 mg/kg/injection, schedule: Q01DX001 (ip), vehicle: gum acacia, higher = longer survival): 110 % of control | T/C (endpoint: median survival time, dose: 43.0 mg/kg/injection, schedule: Q01DX001 (ip), vehicle: gum acacia, higher = longer survival): 92 % of control | T/C (endpoint: median survival time, dose: 64.0 mg/kg/injection, schedule: Q01DX001 (ip), vehicle: gum acacia, higher = longer survival): 90 % of control | T/C (endpoint: median survival time, dose: 96.0 mg/kg/injection, schedule: Q01DX001 (ip), vehicle: gum acacia, higher = longer survival): 155 % of control

O=C(CCCN1CCC(O)(c2cccc(C(F)(F)F)c2)CC1)c1ccc(F)cc1
T/C (endpoint: median survival time, dose: 25.0 mg/kg/injection, schedule: Q04DX003 (ip), vehicle: saline with Tween-80, higher = longer survival): 92 % of control | T/C (endpoint: median survival time, dose: 50.0 mg/kg/injection, schedule: Q04DX003 (ip), vehicle: saline with Tween-80, higher = longer survival): 121 % of control
